Measured values from patent publication US7182884B2, “Bio-liquid crystal polymer and shaped material using same” (Toyoda Gosei Co., Ltd., priority 2003, dated 2007).

Assay: solubility of the bio-liquid crystal polymer in solvents
Type: physicochemical
Set-up: key: +a: soluble only when heated; +: dissolved; −: not dissolved

solubility (solvent DMF): + | solubility (solvent DMSO): + | solubility (solvent NMP): + | solubility (solvent THF): + | solubility (solvent acetone): + | solubility (solvent acetonitrile): + | solubility (solvent chloroform): − | solubility (solvent ethanol): + | solubility (solvent hexane): − | solubility (solvent methanol): + | solubility (solvent pentafluorophenol): + | solubility (solvent toluene): − | solubility (solvent water): ^+a
Compound: O=C(O)/C=C/c1ccc(O)cc1 [4HCA, 4-hydroxycinnamic acid]
